{
  "source": "patent US6939965B2",
  "about": "“Process of manufacture of 1,3-oxathiolane nucleosides using titanium trichloride mono-isopropoxide” (Gilead Sciences, Inc., priority 1998, dated 2005)",
  "origin": "cited, not measured here",
  "key": {"HIV [1]": {"system": "HIV", "conditions": "racemic mixture, compared with AZT"}, "HIV [2]": {"system": "HIV"}},
  "data": [
    {"smiles": "Nc1ccn(C2CSC(CO)O2)c(=O)n1", "note": "(racemic) [BCH-189, 2-hydroxymethyl-5-(cytosin-1-yl)-1,3-oxathiolane]", "values": [
      {"measurement": "activity against HIV relative to AZT", "setting": "HIV [1]", "value": "approximately the sane activity against HIV as AZT"}
    ]},
    {"smiles": "Nc1nc(=O)n([C@@H]2CS[C@H](CO)O2)cc1F", "note": "(relative stereo) [FTC, cis-2-hydroxymethyl-5-(5-fluorocytosin-1-yl)-1,3-oxathiolane]", "values": [
      {"measurement": "HIV activity", "setting": "HIV [2]", "value": "potent HIV activity"}
    ]}
  ]
}
